Experimental data: ChEMBL document CHEMBL5715954, “Silencing c-Myc translation as a therapeutic strategy through targeting PI3Kδ and CK1ε in hematological malignancies” (Blood, 2017)

Tests used:
Set-up in all cases: scale not given: the % may be the effect or the level left
[1] = molecular target: Myosin-IIIa (Homo sapiens) (UniProt Q8NEV4); assay: Inhibition of human MYO3A assessed as enzyme activity at 1 uM using myelin basic protein as substrate preincubated for 20 mins followed by [gamma-33P]-ATP addition and measured after 120 mins by radiometric Hot-SpotSM Kinase assay relative to control
Myosin-IIIa (Homo sapiens), sequence (Q8NEV4 whole entry): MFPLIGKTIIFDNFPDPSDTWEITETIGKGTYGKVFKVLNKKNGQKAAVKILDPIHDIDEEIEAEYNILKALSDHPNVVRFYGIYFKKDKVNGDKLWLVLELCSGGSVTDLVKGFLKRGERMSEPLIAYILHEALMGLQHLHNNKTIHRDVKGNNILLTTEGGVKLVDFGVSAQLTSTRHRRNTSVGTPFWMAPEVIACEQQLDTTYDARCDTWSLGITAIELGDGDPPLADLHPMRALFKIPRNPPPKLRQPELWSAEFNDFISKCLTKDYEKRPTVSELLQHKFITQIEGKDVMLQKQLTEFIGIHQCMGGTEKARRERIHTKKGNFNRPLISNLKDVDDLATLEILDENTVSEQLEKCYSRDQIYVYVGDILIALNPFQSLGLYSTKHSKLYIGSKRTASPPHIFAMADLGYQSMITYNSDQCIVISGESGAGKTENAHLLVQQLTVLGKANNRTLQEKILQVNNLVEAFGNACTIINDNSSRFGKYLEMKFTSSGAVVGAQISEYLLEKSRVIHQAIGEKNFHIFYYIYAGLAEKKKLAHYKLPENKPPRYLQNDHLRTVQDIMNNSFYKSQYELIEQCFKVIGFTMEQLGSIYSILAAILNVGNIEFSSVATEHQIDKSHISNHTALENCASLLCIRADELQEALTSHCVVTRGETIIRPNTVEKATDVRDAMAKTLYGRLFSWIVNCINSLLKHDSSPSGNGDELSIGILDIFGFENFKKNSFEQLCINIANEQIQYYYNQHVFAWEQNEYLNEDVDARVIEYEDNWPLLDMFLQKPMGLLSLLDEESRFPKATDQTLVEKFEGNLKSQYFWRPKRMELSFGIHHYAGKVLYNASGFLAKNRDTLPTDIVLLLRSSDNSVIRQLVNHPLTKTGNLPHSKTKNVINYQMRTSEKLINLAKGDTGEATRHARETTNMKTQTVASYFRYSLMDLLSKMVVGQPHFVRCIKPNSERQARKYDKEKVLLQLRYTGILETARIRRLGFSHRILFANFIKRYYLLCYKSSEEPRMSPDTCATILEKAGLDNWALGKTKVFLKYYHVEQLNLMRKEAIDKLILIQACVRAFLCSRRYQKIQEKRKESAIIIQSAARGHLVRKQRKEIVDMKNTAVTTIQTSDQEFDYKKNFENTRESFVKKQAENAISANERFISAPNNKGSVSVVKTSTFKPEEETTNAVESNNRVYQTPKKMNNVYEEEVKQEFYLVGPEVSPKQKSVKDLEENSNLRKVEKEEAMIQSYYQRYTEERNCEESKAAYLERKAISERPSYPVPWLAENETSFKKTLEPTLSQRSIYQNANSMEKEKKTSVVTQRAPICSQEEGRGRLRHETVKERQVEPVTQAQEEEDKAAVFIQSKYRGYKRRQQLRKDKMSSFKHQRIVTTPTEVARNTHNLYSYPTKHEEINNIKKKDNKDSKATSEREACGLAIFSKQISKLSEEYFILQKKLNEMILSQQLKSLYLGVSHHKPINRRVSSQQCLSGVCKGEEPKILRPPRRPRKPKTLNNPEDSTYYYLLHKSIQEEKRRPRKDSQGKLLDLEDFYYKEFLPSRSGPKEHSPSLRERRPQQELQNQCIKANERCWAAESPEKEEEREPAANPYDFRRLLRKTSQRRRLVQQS

[2] = molecular target: Serine/threonine-protein kinase OSR1 (Homo sapiens) (UniProt O95747); assay: Inhibition of human OSR1 assessed as enzyme activity at 1 uM using RRHYYYDTHTNTYYLRTFGHNTRR as substrate preincubated for 20 mins followed by [gamma-33P]-ATP addition and measured after 120 mins by radiometric Hot-SpotSM Kinase assay relative to control
Serine/threonine-protein kinase OSR1 (Homo sapiens), sequence (O95747 2-527 limits assumed): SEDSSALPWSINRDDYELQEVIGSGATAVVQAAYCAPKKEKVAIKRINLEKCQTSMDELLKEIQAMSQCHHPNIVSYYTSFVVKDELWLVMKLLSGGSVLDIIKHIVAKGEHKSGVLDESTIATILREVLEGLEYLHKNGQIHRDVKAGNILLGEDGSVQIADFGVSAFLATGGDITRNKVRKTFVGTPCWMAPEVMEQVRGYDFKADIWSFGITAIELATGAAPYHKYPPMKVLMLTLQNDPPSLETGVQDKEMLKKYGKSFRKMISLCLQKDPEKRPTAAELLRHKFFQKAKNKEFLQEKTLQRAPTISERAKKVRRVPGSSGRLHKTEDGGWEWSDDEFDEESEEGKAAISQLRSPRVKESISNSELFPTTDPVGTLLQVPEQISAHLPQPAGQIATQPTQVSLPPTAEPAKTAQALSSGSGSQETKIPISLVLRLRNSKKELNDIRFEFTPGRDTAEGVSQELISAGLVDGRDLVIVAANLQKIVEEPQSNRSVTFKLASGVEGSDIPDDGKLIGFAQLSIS

[3] = molecular target: T1, Kinase suppressor of Ras 2 (Homo sapiens) (UniProt Q6VAB6); assay: Inhibition of human KSR2 assessed as enzyme activity at 1 uM using KRREILSRRPSYR as substrate preincubated for 20 mins followed by [gamma-33P]-ATP addition and measured after 120 mins by radiometric Hot-SpotSM Kinase assay relative to control
T1 sequence (whole entry): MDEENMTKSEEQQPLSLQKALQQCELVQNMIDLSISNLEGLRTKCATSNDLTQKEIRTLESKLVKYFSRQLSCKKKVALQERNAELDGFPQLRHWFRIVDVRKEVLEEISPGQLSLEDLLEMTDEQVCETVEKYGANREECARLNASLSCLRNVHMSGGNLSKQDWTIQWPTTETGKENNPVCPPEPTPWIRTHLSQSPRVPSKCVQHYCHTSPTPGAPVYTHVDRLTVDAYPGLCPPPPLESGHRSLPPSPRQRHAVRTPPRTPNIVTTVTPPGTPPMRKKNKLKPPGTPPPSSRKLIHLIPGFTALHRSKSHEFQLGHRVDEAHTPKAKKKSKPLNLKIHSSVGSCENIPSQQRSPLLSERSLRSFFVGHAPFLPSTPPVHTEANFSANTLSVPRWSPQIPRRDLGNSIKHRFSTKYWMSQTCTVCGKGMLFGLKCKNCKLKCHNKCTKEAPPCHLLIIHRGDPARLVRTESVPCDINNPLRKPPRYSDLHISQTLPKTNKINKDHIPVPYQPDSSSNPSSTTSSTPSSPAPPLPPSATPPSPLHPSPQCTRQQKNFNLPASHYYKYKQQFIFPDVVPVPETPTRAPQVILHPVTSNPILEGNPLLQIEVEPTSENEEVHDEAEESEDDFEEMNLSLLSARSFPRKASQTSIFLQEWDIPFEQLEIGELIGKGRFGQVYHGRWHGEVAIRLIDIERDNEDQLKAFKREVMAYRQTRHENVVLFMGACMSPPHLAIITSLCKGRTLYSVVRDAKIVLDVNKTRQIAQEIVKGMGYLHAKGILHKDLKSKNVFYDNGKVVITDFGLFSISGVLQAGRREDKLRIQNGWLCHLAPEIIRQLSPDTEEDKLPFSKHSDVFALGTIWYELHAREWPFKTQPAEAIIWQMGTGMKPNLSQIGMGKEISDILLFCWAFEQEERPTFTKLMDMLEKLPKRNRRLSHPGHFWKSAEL

[4] = molecular target: T2, Mitogen-activated protein kinase kinase kinase 12 (Homo sapiens) (UniProt Q12852); assay: Inhibition of human DLK/MAP3K12 assessed as enzyme activity at 1 uM using myelin basic protein as substrate preincubated for 20 mins followed by [gamma-33P]-ATP addition and measured after 120 mins by radiometric Hot-SpotSM Kinase assay relative to control
T2 sequence (whole entry): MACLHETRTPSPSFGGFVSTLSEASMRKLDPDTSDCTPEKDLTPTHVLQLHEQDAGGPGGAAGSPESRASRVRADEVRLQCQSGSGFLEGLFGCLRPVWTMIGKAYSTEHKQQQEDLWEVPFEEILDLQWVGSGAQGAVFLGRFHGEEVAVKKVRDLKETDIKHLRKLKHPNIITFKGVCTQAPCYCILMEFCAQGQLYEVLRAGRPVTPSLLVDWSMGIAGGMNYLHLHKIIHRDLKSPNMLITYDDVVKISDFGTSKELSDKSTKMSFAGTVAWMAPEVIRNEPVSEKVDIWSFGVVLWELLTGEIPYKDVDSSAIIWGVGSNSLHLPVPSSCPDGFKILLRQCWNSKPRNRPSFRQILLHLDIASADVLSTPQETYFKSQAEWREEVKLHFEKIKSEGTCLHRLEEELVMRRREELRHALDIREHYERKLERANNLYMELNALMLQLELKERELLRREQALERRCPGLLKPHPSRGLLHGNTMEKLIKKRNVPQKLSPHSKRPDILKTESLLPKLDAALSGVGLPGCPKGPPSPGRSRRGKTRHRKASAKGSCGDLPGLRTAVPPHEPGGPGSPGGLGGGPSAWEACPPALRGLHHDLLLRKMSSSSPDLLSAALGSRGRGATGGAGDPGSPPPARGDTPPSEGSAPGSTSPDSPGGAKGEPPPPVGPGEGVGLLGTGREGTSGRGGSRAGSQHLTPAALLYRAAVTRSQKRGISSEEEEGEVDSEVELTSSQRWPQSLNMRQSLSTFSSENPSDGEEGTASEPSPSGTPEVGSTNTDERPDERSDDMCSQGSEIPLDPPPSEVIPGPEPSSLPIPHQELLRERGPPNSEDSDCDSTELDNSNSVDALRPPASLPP

[5] = molecular target: T3, Testis-specific serine/threonine-protein kinase 3 (Homo sapiens) (UniProt Q96PN8); assay: Inhibition of human TSSK3 assessed as enzyme activity at 1 uM using KKKVSRSGLYRSPSMPENLNRPR as substrate preincubated for 20 mins followed by [gamma-33P]-ATP addition and measured after 120 mins by radiometric Hot-SpotSM Kinase assay relative to control
T3 sequence (whole entry): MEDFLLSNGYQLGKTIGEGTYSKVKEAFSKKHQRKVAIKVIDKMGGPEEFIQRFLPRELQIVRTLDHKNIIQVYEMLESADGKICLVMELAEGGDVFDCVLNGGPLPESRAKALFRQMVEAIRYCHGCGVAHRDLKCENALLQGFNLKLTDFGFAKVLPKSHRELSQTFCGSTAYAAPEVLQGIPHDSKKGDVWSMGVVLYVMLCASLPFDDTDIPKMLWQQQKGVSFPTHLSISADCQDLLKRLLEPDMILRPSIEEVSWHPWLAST

[6] = molecular target: Calcium/calmodulin-dependent protein kinase type II subunit alpha (Homo sapiens) (UniProt Q9UQM7); assay: Inhibition of human CAMK2a assessed as enzyme activity at 1 uM using KKALRRQETVDAL as substrate preincubated for 20 mins followed by [gamma-33P]-ATP addition and measured after 120 mins by radiometric Hot-SpotSM Kinase assay relative to control
Calcium/calmodulin-dependent protein kinase type II subunit alpha (Homo sapiens), sequence (Q9UQM7 whole entry): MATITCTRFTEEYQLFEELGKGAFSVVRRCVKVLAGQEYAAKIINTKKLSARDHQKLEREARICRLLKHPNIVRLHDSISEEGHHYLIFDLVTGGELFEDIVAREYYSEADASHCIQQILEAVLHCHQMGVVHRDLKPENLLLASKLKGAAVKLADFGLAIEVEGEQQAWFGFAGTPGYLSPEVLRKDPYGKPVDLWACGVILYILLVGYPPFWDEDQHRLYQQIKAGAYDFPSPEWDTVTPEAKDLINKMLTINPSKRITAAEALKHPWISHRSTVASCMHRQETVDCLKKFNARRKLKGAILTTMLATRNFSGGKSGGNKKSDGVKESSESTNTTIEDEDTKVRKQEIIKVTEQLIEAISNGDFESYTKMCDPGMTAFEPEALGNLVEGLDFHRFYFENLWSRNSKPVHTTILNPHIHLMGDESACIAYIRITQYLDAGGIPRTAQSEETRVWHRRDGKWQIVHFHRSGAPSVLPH

[7] = molecular target: Mitogen-activated protein kinase kinase kinase kinase 5 (Homo sapiens) (UniProt Q9Y4K4); assay: Inhibition of human KHS assessed as enzyme activity at 1 uM using myelin basic protein as substrate preincubated for 20 mins followed by [gamma-33P]-ATP addition and measured after 120 mins by radiometric Hot-SpotSM Kinase assay relative to control
Mitogen-activated protein kinase kinase kinase kinase 5 (Homo sapiens), sequence (Q9Y4K4 whole entry, looked up): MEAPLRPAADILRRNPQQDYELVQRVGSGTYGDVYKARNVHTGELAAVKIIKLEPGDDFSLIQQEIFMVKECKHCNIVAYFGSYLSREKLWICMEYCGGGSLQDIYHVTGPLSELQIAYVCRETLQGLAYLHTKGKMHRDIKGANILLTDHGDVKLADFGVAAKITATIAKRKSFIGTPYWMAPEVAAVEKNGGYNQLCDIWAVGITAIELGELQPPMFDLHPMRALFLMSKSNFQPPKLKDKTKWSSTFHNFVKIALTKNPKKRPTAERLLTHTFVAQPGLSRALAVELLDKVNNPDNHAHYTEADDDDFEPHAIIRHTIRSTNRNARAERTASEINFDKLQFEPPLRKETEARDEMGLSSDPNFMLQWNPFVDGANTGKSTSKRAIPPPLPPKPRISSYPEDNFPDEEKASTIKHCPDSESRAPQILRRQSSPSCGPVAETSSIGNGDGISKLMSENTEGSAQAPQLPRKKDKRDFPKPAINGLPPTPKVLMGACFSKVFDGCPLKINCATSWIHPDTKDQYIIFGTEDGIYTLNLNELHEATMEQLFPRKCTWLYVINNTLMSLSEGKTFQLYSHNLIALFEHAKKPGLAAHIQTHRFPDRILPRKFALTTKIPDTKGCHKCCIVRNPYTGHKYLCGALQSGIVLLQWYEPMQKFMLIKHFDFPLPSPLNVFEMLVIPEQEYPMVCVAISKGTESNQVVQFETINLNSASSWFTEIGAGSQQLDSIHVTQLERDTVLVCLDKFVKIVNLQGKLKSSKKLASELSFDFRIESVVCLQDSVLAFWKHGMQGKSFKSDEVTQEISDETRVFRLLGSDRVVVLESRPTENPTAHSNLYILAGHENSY

Compound | Activity [1] | Activity [2] | Activity [3] | Activity [4] | Activity [5] | Activity [6] | Activity [7]
CC[C@H](Nc1ncnc2[nH]cnc12)c1nc2cccc(F)c2c(=O)n1-c1ccccc1 | 91.7% | 93.2% | 95% | 110% | 102% | 101% | 95.9%
C[C@H](Nc1ncnc2nc[nH]c12)c1cc2cccc(Cl)c2c(=O)n1-c1ccccc1 | 93.6% | 97.1% | 91.4% | 107% | 109% | 95.4% | 101%
CC(C)Oc1ccc(-c2nn([C@@H](C)c3oc4ccc(F)cc4c(=O)c3-c3cccc(F)c3)c3ncnc(N)c23)cc1F [UMBRALISIB] | 84.7% | 95.5% | 96.2% | 127% | 107% | 100% | 99.5%
